Some results are limits rather than exact numbers.

T1 sequence (Q93009 208-1102): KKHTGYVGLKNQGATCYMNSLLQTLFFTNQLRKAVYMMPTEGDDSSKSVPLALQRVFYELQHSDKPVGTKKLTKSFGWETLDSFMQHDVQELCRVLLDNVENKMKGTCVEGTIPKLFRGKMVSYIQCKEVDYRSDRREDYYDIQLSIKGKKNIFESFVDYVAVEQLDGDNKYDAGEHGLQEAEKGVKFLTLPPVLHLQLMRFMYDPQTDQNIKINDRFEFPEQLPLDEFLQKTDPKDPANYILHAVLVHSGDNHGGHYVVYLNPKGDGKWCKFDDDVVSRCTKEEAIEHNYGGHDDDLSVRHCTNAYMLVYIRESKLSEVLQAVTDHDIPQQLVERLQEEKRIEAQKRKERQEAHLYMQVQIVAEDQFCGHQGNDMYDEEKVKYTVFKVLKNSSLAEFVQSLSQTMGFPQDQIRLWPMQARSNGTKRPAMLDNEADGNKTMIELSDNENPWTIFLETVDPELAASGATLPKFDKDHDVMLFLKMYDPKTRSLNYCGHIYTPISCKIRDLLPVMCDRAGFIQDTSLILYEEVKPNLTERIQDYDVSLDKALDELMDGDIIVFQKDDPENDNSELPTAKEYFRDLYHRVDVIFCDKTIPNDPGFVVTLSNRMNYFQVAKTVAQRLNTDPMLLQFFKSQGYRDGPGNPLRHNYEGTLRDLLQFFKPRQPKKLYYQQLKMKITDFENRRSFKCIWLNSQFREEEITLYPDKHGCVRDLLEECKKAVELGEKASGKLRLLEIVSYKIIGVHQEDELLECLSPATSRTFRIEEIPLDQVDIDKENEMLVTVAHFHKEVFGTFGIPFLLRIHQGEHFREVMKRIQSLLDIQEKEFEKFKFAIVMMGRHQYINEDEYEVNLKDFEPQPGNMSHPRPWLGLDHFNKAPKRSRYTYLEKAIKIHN

This assay has as its target T1, USP7 (Homo sapiens, UniProt Q93009).
T1 construct: USP7, construct USP7 (208-1102) 6*His, Viva Biotech; initiator Met (N); TEV site (C); 6*His (C); purchased Viva Biotech
Put plainly: USP7 Assay A and B (Ubiquitin-Rhodamine 110 assay). Type of assay: biochemical. The settings on record: Ub-Rh110 substrate 25 nM, read-out: USP7_IC50. The protocol: Each assay was performed in a final volume of 15 μL in assay buffer containing 20 mM Tris-HCl (pH 8.0, (1M Tris-HCl, pH 8.0 solution; Corning 46-031-CM)), 1 mM GSH (L-Glutathione reduced; Sigma #G4251), 0.03% BGG (0.22 μM filtered, Sigma, #G7516-25G), and 0.01% Triton X-100 (Sigma, #T9284-10L). Nanoliter quantities of either an 8-point or 10-point, 3-fold serial dilution in DMSO was pre-dispensed into assay plates (Perkin Elmer, ProxiPlate-384 F Plus, #6008269) for a final test concentration range of either 25 μM to 11 nM or 25 μM to 1.3 nM, respectively. The final concentration of the enzyme (USP7, construct USP7 (208-1102) 6*His, Viva Biotech) in the assay was 62.5 pM. Final substrate (Ub-Rh110; Ubiquitin-Rhodamine 110, R&D Systems #U-555) concentration was 25 nM with [Ub-Rh110]<<Km. 5 μL of 2× enzyme was added to the assay plates (pre-stamped with compound) and preincubated with USP7 for 30 min. 5 μL of 2×Ub-Rh110 was then added to assay plates. Plates were incubated stacked for 20 min at room temperature before 5 μL of stop solution (final concentration of 10 mM citric acid in assay buffer (Sigma, #251275-500G)). Fluorescence was read on the Envision (Excitation at 485 nm and Emission at 535 nm; Perkin Elmer) or on the PheraSTAR (Excitation at 485 nm and Emission at 535 nm; BMG Labtech).
Each assay was performed in a final volume of 20 μL in assay buffer containing 20 mM Tris-HCl (pH 8.0, (1M Tris-HCl, pH 8.0 solution; Corning 46-031-CM)), 2 mM CaCl2 (1M calcium chloride solution; Sigma #21114), 1 mM GSH (L-Glutathione reduced; Sigma #G4251), 0.01% Prionex (0.22 μM filtered, Sigma #G-0411), and 0.01% Triton X-100. Stock compound solutions were stored at −20° C. as 10 mM in DMSO. Up to 1 month prior to the assay, 2 mM test compounds were pre-dispensed into assay plates (Black, low volume; Corning #3820) and frozen at −20° C. Prestamped assay plates were allowed to warm to room temperature on the day of the assay. For the screen, 100 nL of 2 mM was pre-dispensed for a final screening concentration of 10 μM (DMSO(fc)=0.5%). For follow-up studies, 250 nL of an 8-point, 3-fold serial dilution in DMSO was pre-dispensed into assay plates for a final test concentration of 25 μM-11 nM (1.25c % DMSO final concentration). Unless otherwise indicated, all follow-up assays were run on triplecate plates. Enzyme (USP7, construct Met (208-1102)-TEV-6*His; Viva Q93009-1) concentration and incubation times were optimized for the maximal signal-to-background while maintaining initial velocity conditions at a fixed substrate concentration. The final concentration of the enzyme in the assay was either 75 pM or 250 pM. Final substrate (Ub-Rh110; Ubiquitin-Rhodamine 110, R&D Systems (biotechne)#U-555) concentration was 25 nM with [Ub-Rh110]<<Km. Compounds were either not preincubated or preincubated with USP7 between 30 to 120 min prior to the addition of 10 μL of 2×Ub-Rh110 to compound plates. Plates were incubated stacked for either 23 or 45 min at room temperature before fluorescence was read on the Envision (Excitation at 485 nm and Emission at 535 nm; Perkin Elmer) or on the PheraSTAR (Excitation at 485 nm and Emission at 535 nm; BMG Labtech).
Data from USP7 Assays A and B were reported as percent inhibition (inh) compared with control wells based on the following equation: % inh=1−((FLU−AveLow)/(AveHigh−AveLow)) where FLU=measured Fluorescence, AveLow=average Fluorescence of no enzyme control (n=16), and AveHigh=average Fluorescence of DMSO control (n=16). IC50 values were determined by curve fitting of the standard 4 parameter logistic fitting algorithm included in the Activity Base software package: IDBS XE Designer Model205. Data was fitted using the Levenburg Marquardt algorithm.
As to “3-(4-fluoro-3-methoxyphenyl)-6-{[1-(4-fluorobenzoyl)-4-hydroxypiperidin-4-yl]methyl}-6H,7H-[1,2]thiazolo[4,5-d]pyrimidin-7-one [Compound I-9]”, the IC50 was more than 10 µM.
Consider `C[C@H](CC(=O)N1CCC(O)(Cn2cnc3c(-c4ccccc4)nsc3c2=O)CC1)c1ccccc1` [Compound I-13, 6-({4-hydroxy-1-[(3R)-3-phenylbutanoyl]piperidin-4-yl}methyl)-3-phenyl-6H,7H-[1,2]thiazolo[4,5-d]pyrimidin-7-one], for which the IC50 was in the range of 1 to 10 µM.
Then `C[C@H](CC(=O)N1CCC(O)(Cn2cnc3cc[nH]c3c2=O)CC1)c1ccccc1` [Compound I-28, 3-({4-hydroxy-1-[(3R)-3-phenylbutanoyl]piperidin-4-yl}methyl)-3H,4H,5H-pyrrolo[3,2-d]pyrimidin-4-one], with less than 0.5 µM; and `O=C(c1ccc(F)cc1)N1CCC(O)(Cn2cnc3c(-c4ccccc4)nsc3c2=O)CC1` [Compound I-1, 6-{[1-(4-fluorobenzoyl)-4-hydroxypiperidin-4-yl]methyl}-3-phenyl-6H,7H-[1,2]thiazolo[4,5-d]pyrimidin-7-one], with more than 10 µM; and `C[C@@H](CC(=O)N1CCC(O)(Cn2cnc3c(-c4ccccc4)nsc3c2=O)CC1)n1cccn1` [Compound I-15, 6-({4-hydroxy-1-[(3 S)-3-(1H-pyrazol-1-yl)butanoyl]piperidin-4-yl}methyl)-3-phenyl-6H,7H-[1,2]thiazolo[4,5-d]pyrimidin-7-one], with 1 to 10 µM.
For the molecule `C[C@@H](CC(=O)N1CCC(O)(Cn2cnc3c(-c4ccccc4)nsc3c2=O)CC1)c1ccccc1` [Compound I-12, 6-({4-hydroxy-1-[(3 S)-3-phenylbutanoyl]piperidin-4-yl}methyl)-3-phenyl-6H,7H-[1,2]thiazolo[4,5-d]pyrimidin-7-one], the IC50 was less than 0.5 µM.
As to `O=C(C[C@@H](c1ccccc1)C(F)F)N1CCC(O)(Cn2cnc3c(-c4ccccc4)nsc3c2=O)CC1` [Compound I-19, 6-({1-[(3 S)-4,4-difluoro-3-phenylbutanoyl]-4-hydroxypiperidin-4-yl}methyl)-3-phenyl-6H, 7H-[1,2]thiazolo[4,5-d]pyrimidin-7-one], the IC50 was 0.5 to 1 µM.
Take `CN(C)C(=O)N1CCC(O)(Cn2cnc3c(-c4ccc(F)c(N5CCNCC5)c4)nsc3c2=O)CC1` [Compound I-22, 4-({3-[4-fluoro-3-(piperazin-1-yl)phenyl]-7-oxo-6H,7H-[1,2]thiazolo[4,5-d]pyrimidin-6-yl}methyl)-4-hydroxy-N,N-dimethylpiperidine-1-carboxamide]: the IC50 was in the range of 1 to 10 µM.
Then `COc1ccc(-c2n[nH]c3c(=O)n(CC4(O)CCN(C(=O)c5ccc(F)cc5)CC4)cnc23)cc1` [Compound I-6, 6-{[1-(4-fluorobenzoyl)-4-hydroxypiperidin-4-yl]methyl}-3-(4-methoxyphenyl)-1H, 6H,7H-pyrazolo[4,3-d]pyrimidin-7-one], with less than 0.5 µM; and `CC(CC(=O)N1CCC(O)(Cn2cnc3c(-c4ccccc4)nsc3c2=O)CC1)c1ccccc1` (stereo not shown) [Compound I-11, 6-{[4-hydroxy-1-(3-phenylbutanoyl)piperidin-4-yl]methyl}-3-phenyl-6H,7H-[1,2]thiazolo[4,5-d]pyrimidin-7-one], with 0.5 to 1 µM.

The values above are taken from patent US10377773B2, “Isothiazolopyrimidinones, pyrazolopyrimidinones, and pyrrolopyrimidinones as ubiquitin-specific protease 7 inhibitors” (FORMA Therapeutics, Inc., priority 2015, dated 2019).
